Results taken from the supplement of paper PMC10307832.

How the values were obtained:
Experiment in all cases: relative viability (nuclei count vs DMSO), 5 days (fraction); higher = more cells survive
[1] = tested on: HOP-62
Summary of the method: (§1)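 Lung cancer cell lines were pin-tool dosed in 1536-well plates on the day after seeding, with either a lone drug or a fixed anchor-drug dose plus five library-drug doses (not always all listed) in √10 steps. Nuclei were counted on 4× images after 5 days. Relative viability is the ratio of treated-well to vehicle-well nuclei counts, with each value a median of duplicate plates.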

[2] = tested on: NCI-H460
Summary of the method: as §1

[3] = tested on: SK-LU-1
Summary of the method: as §1

[4] = tested on: HCC-366
Summary of the method: as §1

[5] = tested on: NCI-H1792
Summary of the method: as §1

[6] = tested on: EMC-BAC-2
Summary of the method: as §1

[7] = tested on: HCC-827
Summary of the method: as §1

[8] = tested on: SW 1573
Summary of the method: as §1

[9] = tested on: NCI-H2009
Summary of the method: as §1

[10] = tested on: NCI-H1755
Summary of the method: as §1

[11] = tested on: NCI-H727
Summary of the method: as §1

[12] = tested on: NCI-H1395
Summary of the method: as §1

[13] = tested on: NCI-H2228
Summary of the method: as §1

[14] = tested on: NCI-H1437
Summary of the method: as §1

[15] = tested on: HARA
Summary of the method: as §1

[16] = tested on: COR-L 105
Summary of the method: as §1

[17] = tested on: A-427
Summary of the method: as §1

[18] = tested on: NCI-H23
Summary of the method: as §1

[19] = tested on: CAL-12T
Summary of the method: as §1

[20] = tested on: NCI-H1915
Summary of the method: as §1

Q: With CCN(CC)CCCCNc1ncc2cc(-c3cc(OC)cc(OC)c3)c(NC(=O)NC(C)(C)C)nc2n1 + CC1(C)CCC(c2ccc(Cl)cc2)=C(CN2CCN(c3ccc(C(=O)NS(=O)(=O)c4ccc(N[C@H](CCN5CCOCC5)CSc5ccccc5)c(S(=O)(=O)C(F)(F)F)c4)cc3)CC2)C1 [Navitoclax] (partner 0.5 µM) as the compound, how does the relative viability ([1]; first compound 0.01 µM) read?
A: 1.15

Q: And the relative viability ([1]; first compound 0.03162 µM)?
A: 1.13

Q: What about the relative viability ([1]; first compound 0.1 µM) of the same compound?
A: 1.29

Q: And the relative viability ([1]; first compound 0.3162 µM)?
A: 0.974

Q: What about the relative viability ([1]; first compound 1 µM) of the same compound?
A: 1.06

Q: What about the relative viability ([2]; first compound 0.01 µM) of the same compound?
A: 1.3

Q: And the relative viability ([2]; first compound 0.03162 µM)?
A: 1.18

Q: What about the relative viability ([2]; first compound 0.3162 µM) of the same compound?
A: 1.21

Q: What about the relative viability ([2]; first compound 1 µM) of the same compound?
A: 1.09

Q: What about the relative viability ([3]; first compound 0.01 µM) of the same compound?
A: 1.02

Q: What about the relative viability ([3]; first compound 0.03162 µM) of the same compound?
A: 0.894

Q: What about the relative viability ([3]; first compound 0.1 µM) of the same compound?
A: 1.08

Q: What about the relative viability ([3]; first compound 0.3162 µM) of the same compound?
A: 1.18

Q: What about the relative viability ([3]; first compound 1 µM) of the same compound?
A: 0.639

Q: What about the relative viability ([4]; first compound 0.01 µM) of the same compound?
A: 1.16

Q: And the relative viability ([4]; first compound 0.03162 µM)?
A: 1.09

Q: And the relative viability ([4]; first compound 0.1 µM)?
A: 1.2

Q: And the relative viability ([4]; first compound 0.3162 µM)?
A: 1.27

Q: And the relative viability ([4]; first compound 1 µM)?
A: 1.2

Q: What about the relative viability ([5]; first compound 0.01 µM) of the same compound?
A: 0.688

Q: What about the relative viability ([5]; first compound 0.03162 µM) of the same compound?
A: 0.739

Q: What about the relative viability ([5]; first compound 0.1 µM) of the same compound?
A: 0.712

Q: And the relative viability ([5]; first compound 0.3162 µM)?
A: 1.49

Q: And the relative viability ([5]; first compound 1 µM)?
A: 0.19

Q: And the relative viability ([6]; first compound 0.01 µM)?
A: 1.38

Q: What about the relative viability ([6]; first compound 0.03162 µM) of the same compound?
A: 1.24

Q: And the relative viability ([6]; first compound 0.1 µM)?
A: 1.24

Q: And the relative viability ([6]; first compound 0.3162 µM)?
A: 1.28

Q: What about the relative viability ([6]; first compound 1 µM) of the same compound?
A: 0.899

Q: And the relative viability ([7]; first compound 0.01 µM)?
A: 1.06

Q: And the relative viability ([7]; first compound 0.03162 µM)?
A: 0.981

Q: What about the relative viability ([7]; first compound 0.1 µM) of the same compound?
A: 1.05

Q: And the relative viability ([7]; first compound 0.3162 µM)?
A: 0.993

Q: What about the relative viability ([7]; first compound 1 µM) of the same compound?
A: 1.02

Q: And the relative viability ([8]; first compound 0.01 µM)?
A: 0.958

Q: What about the relative viability ([8]; first compound 0.03162 µM) of the same compound?
A: 0.963

Q: And the relative viability ([8]; first compound 0.1 µM)?
A: 1.31

Q: And the relative viability ([8]; first compound 0.3162 µM)?
A: 1.25

Q: And the relative viability ([8]; first compound 1 µM)?
A: 1.01

Q: What about the relative viability ([9]; first compound 0.01 µM) of the same compound?
A: 1.25

Q: What about the relative viability ([9]; first compound 0.03162 µM) of the same compound?
A: 1.14

Q: And the relative viability ([9]; first compound 0.1 µM)?
A: 1.21

Q: What about the relative viability ([9]; first compound 0.3162 µM) of the same compound?
A: 1.31

Q: And the relative viability ([9]; first compound 1 µM)?
A: 1.11

Q: What about the relative viability ([10]; first compound 0.01 µM) of the same compound?
A: 1.14

Q: And the relative viability ([10]; first compound 0.03162 µM)?
A: 1.08

Q: And the relative viability ([10]; first compound 0.1 µM)?
A: 1.07

Q: What about the relative viability ([10]; first compound 0.3162 µM) of the same compound?
A: 1.09

Q: What about the relative viability ([10]; first compound 1 µM) of the same compound?
A: 0.987

Q: And the relative viability ([11]; first compound 0.01 µM)?
A: 0.443

Q: What about the relative viability ([11]; first compound 0.03162 µM) of the same compound?
A: 0.336

Q: What about the relative viability ([11]; first compound 0.1 µM) of the same compound?
A: 0.428

Q: And the relative viability ([11]; first compound 0.3162 µM)?
A: 0.454

Q: And the relative viability ([11]; first compound 1 µM)?
A: 0.387

Q: And the relative viability ([12]; first compound 0.03162 µM)?
A: 1.1

Q: And the relative viability ([12]; first compound 0.1 µM)?
A: 1.09

Q: What about the relative viability ([12]; first compound 0.3162 µM) of the same compound?
A: 1.17

Q: And the relative viability ([12]; first compound 1 µM)?
A: 0.751

Q: What about the relative viability ([13]; first compound 0.01 µM) of the same compound?
A: 0.841

Q: And the relative viability ([13]; first compound 0.03162 µM)?
A: 0.866

Q: And the relative viability ([13]; first compound 0.1 µM)?
A: 0.979

Q: What about the relative viability ([13]; first compound 0.3162 µM) of the same compound?
A: 0.884

Q: And the relative viability ([13]; first compound 1 µM)?
A: 0.541

Q: And the relative viability ([14]; first compound 0.01 µM)?
A: 1.11

Q: What about the relative viability ([14]; first compound 0.03162 µM) of the same compound?
A: 1.1

Q: And the relative viability ([14]; first compound 0.1 µM)?
A: 1.35

Q: And the relative viability ([14]; first compound 0.3162 µM)?
A: 1.22

Q: What about the relative viability ([14]; first compound 1 µM) of the same compound?
A: 1.04

Q: What about the relative viability ([15]; first compound 0.01 µM) of the same compound?
A: 1.19

Q: And the relative viability ([15]; first compound 0.03162 µM)?
A: 1.15

Q: What about the relative viability ([15]; first compound 0.1 µM) of the same compound?
A: 1.29

Q: What about the relative viability ([15]; first compound 0.3162 µM) of the same compound?
A: 1.14

Q: What about the relative viability ([15]; first compound 1 µM) of the same compound?
A: 1.04

Q: What about the relative viability ([16]; first compound 0.01 µM) of the same compound?
A: 0.811

Q: And the relative viability ([16]; first compound 0.03162 µM)?
A: 0.81

Q: And the relative viability ([16]; first compound 0.1 µM)?
A: 0.83

Q: And the relative viability ([16]; first compound 0.3162 µM)?
A: 0.872

Q: And the relative viability ([16]; first compound 1 µM)?
A: 0.883

Q: What about the relative viability ([17]; first compound 0.01 µM) of the same compound?
A: 0.991

Q: And the relative viability ([17]; first compound 0.03162 µM)?
A: 1.03

Q: What about the relative viability ([17]; first compound 0.1 µM) of the same compound?
A: 1.11

Q: What about the relative viability ([17]; first compound 0.3162 µM) of the same compound?
A: 1.08

Q: And the relative viability ([17]; first compound 1 µM)?
A: 0.908

Q: What about the relative viability ([18]; first compound 0.01 µM) of the same compound?
A: 0.744

Q: What about the relative viability ([18]; first compound 0.03162 µM) of the same compound?
A: 0.85

Q: And the relative viability ([18]; first compound 0.1 µM)?
A: 1.09

Q: And the relative viability ([18]; first compound 0.3162 µM)?
A: 0.921

Q: What about the relative viability ([18]; first compound 1 µM) of the same compound?
A: 0.843

Q: What about the relative viability ([19]; first compound 0.01 µM) of the same compound?
A: 1.43

Q: What about the relative viability ([19]; first compound 0.03162 µM) of the same compound?
A: 1.12

Q: And the relative viability ([19]; first compound 0.1 µM)?
A: 1.22

Q: What about the relative viability ([19]; first compound 0.3162 µM) of the same compound?
A: 1.42

Q: And the relative viability ([19]; first compound 1 µM)?
A: 1.19

Q: And the relative viability ([20]; first compound 0.01 µM)?
A: 0.826

Q: And the relative viability ([20]; first compound 0.03162 µM)?
A: 0.795

Q: And the relative viability ([20]; first compound 0.1 µM)?
A: 0.838

Q: And the relative viability ([20]; first compound 0.3162 µM)?
A: 0.749

Q: What about the relative viability ([20]; first compound 1 µM) of the same compound?
A: 0.805
